Test results: US11229620B2, “3-methanesulfonylpropionitrile for treating inflammation and/or pain” (OLATEC THERAPEUTICS LLC, priority 2010, dated 2022)

What was measured:
IL-1β = assay: In vitro cytokine release from human PBMCs: IL-1β; format: cell-based; settings: PBMC, lipopolysaccharide 50 pg/mL, 24 hours, read-out: inhibited the release of IL-1β
Experimental: (§1) 3-methanesulfonylpropionitrile (MSPN, prepared according to Example 1 was tested for its effects on in vitro cytokine release from human peripheral blood mononuclear cells (PBMCs). Secretion of cytokines by PBMCs plays a significant role in the inflammatory response.
(§2) MSPN was added to cultures of fresh human PBMCs at 162 μM (22 μg/mL) in duplicate. One hour later, PBMCs were stimulated to secrete cytokines using the mitogens lipopolysaccharide and concanavalin A (ConA). Lipopolysaccharide at 50 pg/mL was used to stimulate the release of interleukin IL-1β, IL-6 and tumor necrosis factor TNFα. ConA at 20 μg/mL was used to stimulate the release of IL-4 and ConA at 5 μg/mL was used to stimulate interferon IFNγ. The corticosteroid dexamethasone (100 nM) was used as a positive control. After 24 hours of incubation, the supernatants were assayed for the cytokines using the Luminex Bead kit. MSPN at 22 μg/mL inhibited the release of IL-1β, IL-6, TNFα, IL-4 and IFNγ by 95%, 98%, 98%, 7% and 21%, respectively. Dexamethasone inhibited the release of IL-1β, IL-6, TNFα, IL-4 and IFNγ by 24%, 60%, 42%, 93% and 87%, respectively.

IL-6 = assay: In vitro cytokine release from human PBMCs: IL-6; format: cell-based; settings: PBMC, lipopolysaccharide 50 pg/mL, 24 hours, read-out: inhibited the release of IL-6
Experimental: as §1, §2

TNFα = assay: In vitro cytokine release from human PBMCs: TNFα; format: cell-based; settings: PBMC, lipopolysaccharide 50 pg/mL, 24 hours, read-out: inhibited the release of TNFα
Experimental: as §1, §2

IL-4 = assay: In vitro cytokine release from human PBMCs: IL-4; format: cell-based; settings: PBMC, ConA 20 μg/mL, 24 hours, read-out: inhibited the release of IL-4
Experimental: as §1, §2

IFNγ = assay: In vitro cytokine release from human PBMCs: IFNγ; format: cell-based; settings: PBMC, ConA 5 μg/mL, 24 hours, read-out: inhibited the release of IFNγ
Experimental: as §1, §2

[1] = system: arachidonic acid induced ear swelling; assay: Topical arachidonic acid induced ear swelling model in mice; format: in vivo; settings: 30 min before and 15 min after challenge, at 90 minutes
Experimental: Purified 3-methanesulfonylpropionitrile (MSPN, prepared according to Example 2) was dissolved in vehicle (ethanol/acetone 1:1) to 5% (w/v). The active compound, indomethacin (positive control in vehicle), and vehicle were evaluated for anti-inflammatory activity in the topical arachidonic acid induced ear swelling model in mice.
Male ICR derived mice weighing 22±2 g were used in this experiment. 5 mice were used for each group (active compound, positive control, and vehicle). All animals were maintained in a controlled temperature (22-24° C.) and humidity (60%-70%) environment with 12-hour light/dark cycles for at least one week prior to use.
Arachidonic acid (2 mg in 20 μL acetone) was applied topically onto the anterior and posterior surfaces of the right ear of test animals to induce inflammation. MSPN in vehicle (20 μL), indomethacin (0.3 mg) in vehicle, and vehicle (20 μL) was each applied 30 minutes before and 15 minutes after arachidonic acid challenge. At 90 minutes after arachidonic acid induction of ear edema, the thickness of the right ear and the left ear was measured and the difference calculated as an indication of the inflammation in the right ear. Significant activity is defined as a reduction (inhibition) in arachidonic acid induced ear swelling by ≥30% relative to the vehicle-treated group.

[2] = Systemic (plasma) exposure of MSPN after oral and subcutaneous administration to rats; format: in vivo; settings: after both the oral and subcutaneous routes
Experimental: This study was done to determine the systemic (plasma) exposure of MSPN after administration by the oral and subcutaneous routes to rats.
MSPN substance was prepared in water for oral administration and in saline for subcutaneous administration. Rats weighed 282 to 295 g were used in the study. Male rats (n=2) were given a single dose at 50, 160 or 500 mg/kg by both oral and subcutaneous routes. Female rats (n=2) were dosed only at 500 mg/kg by both oral and subcutaneous routes. The blood was drawn from each rat at 0.25, 1, 2, 3, 4, 6, 12, 24, and 48 hours and measured for MSPN concentration by LC/MS/MS.

[3] = Oral systemic toxicity administration in rats; format: in vivo
[4] = Oral systemic toxicity administration in dogs; format: in vivo
[5] = Storage stability of the isolated product at room temperature; format: physicochemical; settings: oil or solid form, enclosed vessel, room temperature (22-28° C.)
Excerpt: In a preferred embodiment, the water-immiscible organic solvent is ethyl acetate. After the aqueous phase is removed, the ethyl acetate solvent is removed from the product by any means known to a person skilled in the art. For example, the ethyl acetate solvent can be removed by evaporation such as rotary evaporation or drying under nitrogen gas. After the ethyl acetate solvent is removed, the product 3-methanesulfonylpropionitrile is obtained in an oil form or in a solid form, which is stored in an enclosed vessel (such as a capped vial or bottle) and is stable for at least 1-3 months at room temperature (22-28° C.).

## C[C@@H]1C[C@H]2[C@@H]3CCC4=CC(=O)C=C[C@]4(C)[C@@]3(F)[C@@H](O)C[C@]2(C)[C@@]1(O)C(=O)CO [Dexamethasone, dexamethasone, reference compound]
IL-1β; dexamethasone 100 nM
  inhibition at 0.1 µM: 24%
IL-6; dexamethasone 100 nM
  inhibition at 0.1 µM: 60%
TNFα; dexamethasone 100 nM
  inhibition at 0.1 µM: 42%
IL-4; dexamethasone 100 nM
  inhibition at 0.1 µM: 93%
IFNγ; dexamethasone 100 nM
  inhibition at 0.1 µM: 87%

## CS(=O)(=O)CCC#N [MSPN, 3-methanesulfonylpropionitrile]
IL-1β; MSPN at 22 μg/mL (162 μM)
  inhibition at 162 µM: 95%
IL-6; MSPN at 22 μg/mL (162 μM)
  inhibition at 162 µM: 98%
TNFα; MSPN at 22 μg/mL (162 μM)
  inhibition at 162 µM: 98%
IL-4; MSPN at 22 μg/mL (162 μM)
  inhibition at 162 µM: 7%
IFNγ; MSPN at 22 μg/mL (162 μM)
  inhibition at 162 µM: 21%
[1]; 5% (w/v) in ethanol/acetone 1:1, 20 μL topical
  decrease in the ear swelling induced by arachidonic acid relative to vehicle-treated group: 31%
[2]
  bioavailability: significant bioavailability
[3]; rat, in vivo, po
  effects seen after oral, systemic toxicity administration: mild physiological effects including decreased body temperature, decreased respiratory rate, increased blood pressure and increased heart rate
[3]; rats, oral
  doses at which effects were seen, above expected human therapeutic doses: over 2000 fold
[4]; dog, in vivo, po
  effects seen after oral, systemic toxicity administration: mild physiological effects including decreased body temperature, decreased respiratory rate, increased blood pressure and increased heart rate
[4]; dogs, oral
  doses at which effects were seen, above expected human therapeutic doses: over 2000 fold
[5]
  stable on storage: 1-3 months

## COc1ccc2c(c1)c(CC(=O)O)c(C)n2C(=O)c1ccc(Cl)cc1 [indomethacin, reference compound]
[1]; 0.3 mg in vehicle topical
  decrease in the ear swelling induced by arachidonic acid relative to vehicle-treated group: 60%
